# Experimental data published in ChEMBL document CHEMBL5723585, “Data for DCP probe JNJ-54082730” (2024).
# Assays:
# [1] = biological target: 5-hydroxytryptamine receptor 1B (Homo sapiens) (UniProt P28222); experiment: 5-HT1B Eurofins-Cerep binding assay; design: ligand concentration 1 nM; conditions: filed as antagonist, Compound concentration 10.0 uM
# [2] = biological target: Kappa-type opioid receptor (Homo sapiens) (UniProt P41145); experiment: kappa (KOP) Eurofins-Cerep binding assay; conditions: filed as agonist, Compound concentration 10.0 uM
# [3] = biological target: 5-hydroxytryptamine receptor 1A (Homo sapiens) (UniProt P08908); experiment: 5-HT1A Eurofins-Cerep binding assay; design: ligand concentration 0.5 nM; conditions: filed as agonist, Compound concentration 10.0 uM
# [4] = biological target: 5-hydroxytryptamine receptor 2B (Homo sapiens) (UniProt P41595); experiment: 5-HT2B Eurofins-Cerep binding assay; conditions: filed as agonist, Compound concentration 10.0 uM
# [5] = biological target: 5-hydroxytryptamine receptor 3A (Homo sapiens) (UniProt P46098); experiment: 5-HT3 Eurofins-Cerep binding assay; design: ligand concentration 0.5 nM; conditions: filed as antagonist, Compound concentration 10.0 uM
# [6] = biological target: Adenosine receptor A2a (Homo sapiens) (UniProt P29274); experiment: A2A Eurofins-Cerep binding assay; design: ligand concentration 6 nM; conditions: filed as agonist, Compound concentration 10.0 uM
# [7] = biological target: Beta-1 adrenergic receptor (Homo sapiens) (UniProt P08588); experiment: beta 1 Eurofins-Cerep binding assay; design: ligand concentration 0.3 nM; conditions: filed as agonist, Compound concentration 10.0 uM
# [8] = biological target: Cholecystokinin receptor type A (Homo sapiens) (UniProt P32238); experiment: CCK1 (CCKA) Eurofins-Cerep binding assay; design: ligand concentration 0.08 nM; conditions: filed as agonist, Compound concentration 10.0 uM
# [9] = biological target: D(1A) dopamine receptor (Homo sapiens) (UniProt P21728); experiment: D1 Eurofins-Cerep binding assay; design: ligand concentration 0.3 nM; conditions: filed as antagonist, Compound concentration 10.0 uM
# [10] = biological target: Sodium-dependent dopamine transporter (Homo sapiens) (UniProt Q01959); experiment: dopamine transporter Eurofins-Cerep binding assay; conditions: filed as antagonist, Compound concentration 10.0 uM
# [11] = biological target: Delta-type opioid receptor (Homo sapiens) (UniProt P41143); experiment: delta (DOP) Eurofins-Cerep binding assay; design: ligand concentration 0.5 nM; conditions: filed as agonist, Compound concentration 10.0 uM
# [12] = biological target: Endothelin-1 receptor (Homo sapiens) (UniProt P25101); experiment: ETA Eurofins-Cerep binding assay; design: ligand concentration 0.03 nM; conditions: filed as agonist, Compound concentration 10.0 uM
# [13] = biological target: Histamine H1 receptor (Homo sapiens) (UniProt P35367); experiment: H1 Eurofins-Cerep binding assay; design: ligand concentration 1 nM; conditions: filed as antagonist, Compound concentration 10.0 uM
# [14] = biological target: Histamine H2 receptor (Homo sapiens) (UniProt P25021); experiment: H2 Eurofins-Cerep binding assay; design: ligand concentration 0.075 nM; conditions: filed as antagonist, Compound concentration 10.0 uM
# Rattus norvegicus [15] = species on record: Rattus norvegicus; experiment: KV channel Eurofins-Cerep binding assay; design: ligand concentration 0.01 nM; conditions: filed as antagonist, Compound concentration 10.0 uM
# [16] = biological target: Muscarinic acetylcholine receptor M1 (Homo sapiens) (UniProt P11229); experiment: M1 Eurofins-Cerep binding assay; design: ligand concentration 2 nM; conditions: filed as antagonist, Compound concentration 10.0 uM
# [17] = biological target: Muscarinic acetylcholine receptor M2 (Homo sapiens) (UniProt P08172); experiment: M2 Eurofins-Cerep binding assay; design: ligand concentration 2 nM; conditions: filed as antagonist, Compound concentration 10.0 uM
# [18] = biological target: Muscarinic acetylcholine receptor M3 (Homo sapiens) (UniProt P20309); experiment: M3 Eurofins-Cerep binding assay; design: ligand concentration 0.2 nM; conditions: filed as antagonist, Compound concentration 10.0 uM
# [19] = biological target: Mu-type opioid receptor (Homo sapiens) (UniProt P35372); experiment: mu (MOP) Eurofins-Cerep binding assay; design: ligand concentration 0.5 nM; conditions: filed as agonist, Compound concentration 10.0 uM
# [20] = biological target: Sodium-dependent noradrenaline transporter (Homo sapiens) (UniProt P23975); experiment: norepinephrine transporter Eurofins-Cerep binding assay; design: ligand concentration 1 nM; conditions: filed as antagonist, Compound concentration 10.0 uM
# [21] = biological target: Sodium-dependent serotonin transporter (Homo sapiens) (UniProt P31645); experiment: 5-HT transporter Eurofins-Cerep binding assay; design: ligand concentration 2 nM; conditions: filed as antagonist, Compound concentration 10.0 uM
# [22] = biological target: Vasopressin V1a receptor (Homo sapiens) (UniProt P37288); experiment: V1a Eurofins-Cerep binding assay; design: ligand concentration 0.3 nM; conditions: filed as agonist, Compound concentration 10.0 uM
# [23] = biological target: 5-hydroxytryptamine receptor 7 (Homo sapiens) (UniProt P34969); experiment: 5-HT7 Eurofins-Cerep binding assay; design: ligand concentration 4 nM; conditions: filed as agonist, Compound concentration 10.0 uM
# [24] = biological target: Adenosine receptor A1 (Homo sapiens) (UniProt P30542); experiment: A1 Eurofins-Cerep binding assay; design: ligand concentration 1 nM; conditions: filed as antagonist, Compound concentration 10.0 uM
# [25] = biological target: Adenosine receptor A3 (Homo sapiens) (UniProt P0DMS8); experiment: A3 Eurofins-Cerep binding assay; design: ligand concentration 0.15 nM; conditions: filed as agonist, Compound concentration 10.0 uM
# [26] = biological target: Type-1 angiotensin II receptor (Homo sapiens) (UniProt P30556); experiment: AT1 Eurofins-Cerep binding assay; conditions: filed as antagonist, Compound concentration 10.0 uM
# [27] = biological target: Melanocortin receptor 4 (Homo sapiens) (UniProt P32245); experiment: MC4 Eurofins-Cerep binding assay; design: ligand concentration 0.05 nM; conditions: filed as agonist, Compound concentration 10.0 uM
# [28] = biological target: Melatonin receptor type 1A (Homo sapiens) (UniProt P48039); experiment: MT1 (ML1A) Eurofins-Cerep binding assay; design: ligand concentration 0.01 nM; conditions: filed as agonist, Compound concentration 10.0 uM
# Rattus norvegicus [29] = species on record: Rattus norvegicus; experiment: BZD (central) Eurofins-Cerep binding assay; conditions: filed as agonist, Compound concentration 10.0 uM
# [30] = biological target: Neuropeptide Y receptor type 1 (Homo sapiens) (UniProt P25929); experiment: Y1 Eurofins-Cerep binding assay; design: ligand concentration 0.025 nM; conditions: filed as agonist, Compound concentration 10.0 uM
# [31] = biological target: Neuropeptide Y receptor type 2 (Homo sapiens) (UniProt P49146); experiment: Y2 Eurofins-Cerep binding assay; design: ligand concentration 0.015 nM; conditions: filed as agonist, Compound concentration 10.0 uM
# Rattus norvegicus [32] = species on record: Rattus norvegicus; experiment: Cl-channel (GABA-gated) Eurofins-Cerep binding assay; design: ligand concentration 3 nM; conditions: filed as antagonist, Compound concentration 10.0 uM
# Sodium-dependent noradrenaline transporter (Homo sapiens), sequence (P23975 whole entry): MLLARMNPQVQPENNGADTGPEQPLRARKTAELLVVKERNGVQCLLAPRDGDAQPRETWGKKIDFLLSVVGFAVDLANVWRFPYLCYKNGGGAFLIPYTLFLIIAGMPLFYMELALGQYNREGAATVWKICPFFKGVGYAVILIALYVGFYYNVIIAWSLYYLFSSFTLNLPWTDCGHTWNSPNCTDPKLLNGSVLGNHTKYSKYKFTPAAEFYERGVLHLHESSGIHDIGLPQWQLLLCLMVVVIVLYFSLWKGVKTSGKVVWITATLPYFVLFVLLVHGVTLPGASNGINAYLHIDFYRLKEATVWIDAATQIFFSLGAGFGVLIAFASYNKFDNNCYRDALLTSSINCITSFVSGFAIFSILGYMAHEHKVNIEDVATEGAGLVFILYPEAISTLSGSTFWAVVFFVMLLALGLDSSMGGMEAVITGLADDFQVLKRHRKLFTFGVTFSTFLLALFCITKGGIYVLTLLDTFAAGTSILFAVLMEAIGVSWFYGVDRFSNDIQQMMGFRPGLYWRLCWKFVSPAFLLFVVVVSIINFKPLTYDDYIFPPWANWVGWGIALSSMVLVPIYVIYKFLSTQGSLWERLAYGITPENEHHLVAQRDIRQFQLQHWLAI
# 5-hydroxytryptamine receptor 3A (Homo sapiens), sequence (P46098 whole entry): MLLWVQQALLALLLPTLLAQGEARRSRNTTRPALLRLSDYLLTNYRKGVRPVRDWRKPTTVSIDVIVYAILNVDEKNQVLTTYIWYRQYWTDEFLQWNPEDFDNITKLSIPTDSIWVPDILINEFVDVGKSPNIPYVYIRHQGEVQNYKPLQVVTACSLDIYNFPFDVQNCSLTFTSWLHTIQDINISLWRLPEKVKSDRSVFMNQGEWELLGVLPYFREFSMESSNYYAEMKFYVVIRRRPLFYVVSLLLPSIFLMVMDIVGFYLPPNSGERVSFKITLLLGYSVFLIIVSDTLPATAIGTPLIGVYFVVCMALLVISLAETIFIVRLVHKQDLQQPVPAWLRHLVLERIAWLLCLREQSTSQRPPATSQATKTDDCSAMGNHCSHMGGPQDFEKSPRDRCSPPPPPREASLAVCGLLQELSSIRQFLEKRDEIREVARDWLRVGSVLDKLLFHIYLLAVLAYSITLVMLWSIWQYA
# 5-hydroxytryptamine receptor 1B (Homo sapiens), sequence (P28222 whole entry): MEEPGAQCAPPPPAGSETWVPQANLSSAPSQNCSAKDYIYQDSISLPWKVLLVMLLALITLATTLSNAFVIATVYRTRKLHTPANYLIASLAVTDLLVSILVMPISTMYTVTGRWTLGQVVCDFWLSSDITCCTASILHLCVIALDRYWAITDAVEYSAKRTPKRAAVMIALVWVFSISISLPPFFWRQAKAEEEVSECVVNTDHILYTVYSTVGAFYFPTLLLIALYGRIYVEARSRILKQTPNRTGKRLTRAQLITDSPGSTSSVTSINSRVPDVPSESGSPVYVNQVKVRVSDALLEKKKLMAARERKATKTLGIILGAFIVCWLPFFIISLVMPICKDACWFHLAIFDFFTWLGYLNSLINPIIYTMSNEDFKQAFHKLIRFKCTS
# Adenosine receptor A3 (Homo sapiens), sequence (P0DMS8 whole entry): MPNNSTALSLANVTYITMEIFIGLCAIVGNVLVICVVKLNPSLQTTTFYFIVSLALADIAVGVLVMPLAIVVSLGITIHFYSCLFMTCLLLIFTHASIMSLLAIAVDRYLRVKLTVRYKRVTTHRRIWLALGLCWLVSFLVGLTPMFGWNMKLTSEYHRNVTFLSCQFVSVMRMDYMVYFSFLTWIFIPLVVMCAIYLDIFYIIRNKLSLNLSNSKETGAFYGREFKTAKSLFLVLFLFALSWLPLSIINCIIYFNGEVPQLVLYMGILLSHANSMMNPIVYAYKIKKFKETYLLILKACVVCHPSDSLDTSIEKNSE
# Melatonin receptor type 1A (Homo sapiens), sequence (P48039 whole entry): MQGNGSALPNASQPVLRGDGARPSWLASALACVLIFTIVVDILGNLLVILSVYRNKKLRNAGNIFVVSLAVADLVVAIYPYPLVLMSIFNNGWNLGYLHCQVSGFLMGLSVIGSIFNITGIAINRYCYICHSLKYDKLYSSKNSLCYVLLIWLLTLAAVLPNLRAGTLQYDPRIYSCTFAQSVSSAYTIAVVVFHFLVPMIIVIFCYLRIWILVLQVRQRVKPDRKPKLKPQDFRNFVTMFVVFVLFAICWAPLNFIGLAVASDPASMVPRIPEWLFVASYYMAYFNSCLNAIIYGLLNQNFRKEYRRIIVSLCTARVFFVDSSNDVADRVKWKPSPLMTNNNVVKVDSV
# Adenosine receptor A1 (Homo sapiens), sequence (P30542 whole entry): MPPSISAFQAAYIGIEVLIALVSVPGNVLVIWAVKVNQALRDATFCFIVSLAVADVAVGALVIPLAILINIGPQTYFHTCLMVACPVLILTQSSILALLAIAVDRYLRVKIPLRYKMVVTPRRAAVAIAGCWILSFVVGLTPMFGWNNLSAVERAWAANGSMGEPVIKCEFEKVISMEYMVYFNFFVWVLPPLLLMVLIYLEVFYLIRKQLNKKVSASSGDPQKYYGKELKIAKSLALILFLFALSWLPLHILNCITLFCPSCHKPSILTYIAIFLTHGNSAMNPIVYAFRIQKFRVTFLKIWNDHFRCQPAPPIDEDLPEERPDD
# Neuropeptide Y receptor type 2 (Homo sapiens), sequence (P49146 whole entry): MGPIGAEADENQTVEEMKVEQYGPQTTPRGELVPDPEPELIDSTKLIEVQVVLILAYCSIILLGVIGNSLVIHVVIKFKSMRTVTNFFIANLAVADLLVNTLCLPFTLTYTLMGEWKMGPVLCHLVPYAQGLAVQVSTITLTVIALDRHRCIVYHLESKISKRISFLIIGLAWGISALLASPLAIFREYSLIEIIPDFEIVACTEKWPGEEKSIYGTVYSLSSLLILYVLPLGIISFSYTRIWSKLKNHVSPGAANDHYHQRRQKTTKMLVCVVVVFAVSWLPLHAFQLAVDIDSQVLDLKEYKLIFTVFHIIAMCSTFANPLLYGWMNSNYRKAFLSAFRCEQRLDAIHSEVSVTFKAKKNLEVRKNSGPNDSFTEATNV
# 5-hydroxytryptamine receptor 2B (Homo sapiens), sequence (P41595 whole entry): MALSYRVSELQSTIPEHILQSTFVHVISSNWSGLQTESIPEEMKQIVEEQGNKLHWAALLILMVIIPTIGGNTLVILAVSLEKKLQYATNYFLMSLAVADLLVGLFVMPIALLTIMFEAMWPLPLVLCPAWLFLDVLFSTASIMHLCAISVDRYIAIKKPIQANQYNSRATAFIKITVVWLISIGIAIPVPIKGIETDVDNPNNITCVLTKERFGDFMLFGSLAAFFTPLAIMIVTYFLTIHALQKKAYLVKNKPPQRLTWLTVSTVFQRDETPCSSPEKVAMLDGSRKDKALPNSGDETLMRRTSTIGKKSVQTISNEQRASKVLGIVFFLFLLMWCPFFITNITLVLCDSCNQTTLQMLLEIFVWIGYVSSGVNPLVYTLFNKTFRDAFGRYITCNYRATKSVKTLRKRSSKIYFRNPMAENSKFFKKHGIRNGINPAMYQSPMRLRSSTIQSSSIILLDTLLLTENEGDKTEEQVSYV
# Mu-type opioid receptor (Homo sapiens), sequence (P35372 whole entry): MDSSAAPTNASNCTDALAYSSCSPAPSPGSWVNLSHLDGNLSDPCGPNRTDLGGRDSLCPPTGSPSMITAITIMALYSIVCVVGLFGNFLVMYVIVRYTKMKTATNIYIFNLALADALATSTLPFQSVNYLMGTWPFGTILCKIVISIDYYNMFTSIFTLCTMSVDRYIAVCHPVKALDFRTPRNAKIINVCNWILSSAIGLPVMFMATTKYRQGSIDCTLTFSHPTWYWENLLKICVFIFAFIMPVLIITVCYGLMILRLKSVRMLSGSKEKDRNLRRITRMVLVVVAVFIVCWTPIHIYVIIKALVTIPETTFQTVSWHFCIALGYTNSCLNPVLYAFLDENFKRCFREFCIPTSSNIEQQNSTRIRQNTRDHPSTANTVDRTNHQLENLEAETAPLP
# Neuropeptide Y receptor type 1 (Homo sapiens), sequence (P25929 whole entry): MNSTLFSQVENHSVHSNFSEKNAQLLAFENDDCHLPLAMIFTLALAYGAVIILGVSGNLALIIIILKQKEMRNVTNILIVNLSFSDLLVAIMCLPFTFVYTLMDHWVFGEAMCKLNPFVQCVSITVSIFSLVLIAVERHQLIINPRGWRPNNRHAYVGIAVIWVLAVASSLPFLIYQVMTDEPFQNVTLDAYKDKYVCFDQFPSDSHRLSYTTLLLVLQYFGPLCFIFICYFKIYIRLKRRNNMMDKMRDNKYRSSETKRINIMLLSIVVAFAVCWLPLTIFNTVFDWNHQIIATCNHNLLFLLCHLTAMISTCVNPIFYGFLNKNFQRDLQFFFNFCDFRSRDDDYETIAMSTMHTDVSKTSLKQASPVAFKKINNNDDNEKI
# Muscarinic acetylcholine receptor M1 (Homo sapiens), sequence (P11229 whole entry): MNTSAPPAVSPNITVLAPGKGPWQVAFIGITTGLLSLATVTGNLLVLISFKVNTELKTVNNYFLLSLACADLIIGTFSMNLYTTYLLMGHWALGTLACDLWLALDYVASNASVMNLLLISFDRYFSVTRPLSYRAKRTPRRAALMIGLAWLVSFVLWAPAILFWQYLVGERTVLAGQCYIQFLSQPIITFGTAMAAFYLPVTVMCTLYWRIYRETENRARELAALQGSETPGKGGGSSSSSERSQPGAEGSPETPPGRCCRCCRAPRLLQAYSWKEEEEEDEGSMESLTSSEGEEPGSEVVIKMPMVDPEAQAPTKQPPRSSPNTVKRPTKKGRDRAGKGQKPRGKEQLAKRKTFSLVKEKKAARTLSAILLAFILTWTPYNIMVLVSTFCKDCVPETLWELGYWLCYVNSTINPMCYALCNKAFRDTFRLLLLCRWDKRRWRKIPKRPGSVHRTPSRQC
# Type-1 angiotensin II receptor (Homo sapiens), sequence (P30556 whole entry): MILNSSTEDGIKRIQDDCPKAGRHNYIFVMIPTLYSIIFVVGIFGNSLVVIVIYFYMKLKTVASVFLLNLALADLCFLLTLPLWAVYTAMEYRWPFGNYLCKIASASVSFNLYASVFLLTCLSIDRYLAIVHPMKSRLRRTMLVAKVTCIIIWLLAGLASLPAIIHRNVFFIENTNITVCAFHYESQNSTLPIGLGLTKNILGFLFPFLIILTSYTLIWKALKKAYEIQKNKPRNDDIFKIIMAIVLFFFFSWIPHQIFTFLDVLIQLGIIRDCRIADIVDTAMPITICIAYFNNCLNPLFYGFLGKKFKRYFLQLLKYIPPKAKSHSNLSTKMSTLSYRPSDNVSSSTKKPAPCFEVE
smiles,measurement,setting,value
Cc1cc(C(=O)N2CC[C@@H](C)[C@H](c3cc(C(F)F)nc4ncnn34)C2)cc(C)n1,residual activity,[1],102%
same,residual activity,[2],91%
same,residual activity,[3],99%
same,residual activity,[4],118%
same,residual activity,[5],103%
same,residual activity,[6],55.1%
same,residual activity,[7],96.8%
same,residual activity,[8],104%
same,residual activity,[9],99.2%
same,residual activity,[10],108%
same,residual activity,[11],90.2%
same,residual activity,[12],102%
same,residual activity,[13],106%
same,residual activity,[14],103%
same,residual activity,Rattus norvegicus [15],93.6%
same,residual activity,[16],92.8%
same,residual activity,[17],115%
same,residual activity,[18],103%
same,residual activity,[19],96%
same,residual activity,[20],99%
same,residual activity,[21],117%
same,residual activity,[22],97.3%
same,residual activity,[23],105%
same,residual activity,[24],107%
same,residual activity,[25],104%
same,residual activity,[26],104%
same,residual activity,[27],111%
same,residual activity,[28],109%
same,residual activity,Rattus norvegicus [29],105%
same,residual activity,[30],108%
same,residual activity,[31],109%
same,residual activity,Rattus norvegicus [32],102%
